“Also recorded” adds a separate entry of the source. Read-outs that look alike come from different tables or passages of the source.
How the values were obtained:
[1] = system: pseudovirus bearing SARS-CoV-2 S protein (original strain); experiment: microbe, parasite or virus in culture; assay type: cell-based
IL-2–IL-2Rα PPI = target: T1, IL-2–IL-2Rα PPI (Homo sapiens, UniProt P01589+P60568); experiment: biochemical; assay type: binding
T1 construct: purchased ACROBiosystems IL2-H52H8; ILA-H5251

HCV E–CD81 PPI = target: T2, HCV E–CD81 PPI (UniProt P27958+P60033); experiment: biochemical; assay type: binding
T2 construct: hepatitis C virus envelope glycoprotein E with CD81; purchased R&D Systems 9146-HC; 9144-CD

[2] = system: VSV-SARS-CoV-2-Sdel18 pseudovirus; conditions: Vero E6; ref [40]; read-out: IC50, VSV-SARS-CoV-2-Sdel18 pseudovirus entry; cited from earlier work
COVID-19 [3] = conditions: cited from earlier work
hACE2 = hACE2 (Homo sapiens, UniProt Q9BYF1); experiment: Surface plasmon resonance (single-cycle kinetics) binding to hACE2; conditions: data not shown
[4] = ref [19],[21],[22]; cited from earlier work
influenza virus H1N1 = conditions: ref [36]; cited from earlier work
SARS-CoV-2 pseudovirus = experiment: microbe, parasite or virus in culture; conditions: Severe acute respiratory syndrome-related coronavirus, HEK-293T, read-out: IC50, SARS-CoV-2 pseudovirus cell entry
COVID-19 [5] = conditions: human, in vivo, iv, 1 mg/kg; cited from earlier work
[6] = system: influenza-like illness during COVID-19 pandemic; conditions: 2500 patients, MeBlu 75 mg t.i.d., March 2020; ref [49]; cited from earlier work
CD40–CD154 PPI = conditions: ref [23]; cited from earlier work
SARS-CoV-2 [7] = conditions: cited from earlier work
SARS-CoV-2 spike RBD = target: T3, SARS-CoV-2 spike RBD (Severe acute respiratory syndrome coronavirus 2, UniProt P0DTC2); experiment: Surface plasmon resonance binding to spike RBD; conditions: single and multicycle kinetics; qualitative, not 1:1 binding
T3 construct: SARS-CoV-2 spike RBD (His-tagged, Arg319-Ph541); RayBiotech; His tag; purchased RayBiotech
Method: SPR was performed at Reaction Biology (Malvern, PA, USA) using single and multicycle kinetics to assess the binding to the SARS-CoV-2 spike RBD (His-tagged, Arg319-Ph541; RayBiotech; Peachtree Corners, GA, USA) and determine the kinetics/affinity. Measurements were performed on a Biacore 8K (Cytiva) with a series S CM5 (Cytiva) sensor chip. Spike RBD was immobilized via amine coupling at pH 5.5 to immobilization levels of ~1500–2300 RU (single-cycle) and ~2500 RU (multi-cycle). A running buffer of PBS-p+ (20 mM phosphate buffer with 2.7 mM KCl, 137 mM NaCl, and 0.05% surfactant Tween20) with 1% DMSO was used. All data was solvent corrected, reference subtracted, and blank subtracted using the Biacore Insight Evaluation Software. To try and obtain kinetic/affinity parameters, the data was evaluated using a 1:1 kinetic binding model. However, the binding behavior appears to be more complex than can be approximated using a 1:1 binding model, which prevents a quantitative analysis of the SPR binding data.

[8] = cited from earlier work
hCoV-229E = conditions: read-out: IC50, image-based multicycle replication assay; Huh7; ref [41]; cited from earlier work
SARS-CoV-2 [9] = conditions: read-out: IC50, SARS-CoV-2 antiviral activity; Vero E6; ref [36]; cited from earlier work
HEK293T cells = experiment: Cytotoxicity, MTT assay; assay type: cell-based, human; conditions: 48 h with MeBlu + 48 h culture
Method: For the MTT assay, HEK293T cells were seeded onto 96 wells with the density of 5.0 × 10^4 cells per well. […] After that, cells were incubated with MTT reagent at 37 °C for 2 h. The medium was removed, and dimethyl sulfoxide was added. Cell viability was evaluated using a microplate reader at 570 nm absorbance (SpectraMax iD3, Molecular DEVICES, San Jose, CA, USA).

TNF-R1−TNFα PPI = conditions: ref [23]; cited from earlier work
SARS-CoV-2 [10] = conditions: read-out: IC50, concentration levels that seem to provide antiviral activity; overall range over this work and published studies; ref Table 1; cited from earlier work
COVID-19 [11] = conditions: cited from earlier work; remark: listed apart in the source
HCoV-NL63 S1–hACE2 PPI = target: T4, HCoV-NL63 S1–hACE2 PPI (Homo sapiens, UniProt Q9BYF1); experiment: biochemical; assay type: binding
T4 construct: HCoV-NL63 S1 (His tag, 40600-V08H); purchased Sino Biological 40600-V08H; 10108-H05H

SARS-CoV-2 (B.1.5) = experiment: microbe, parasite or virus in culture; assay type: cell-based; conditions: Severe acute respiratory syndrome coronavirus 2, Vero C1008, 48 h, read-out: IC50, inhibition of SARS-CoV-2 replication
[12] = Pseudovirus, HEK-293T, read-out: IC50, inhibition of cell entry of pseudovirus

T2 sequence (P60033 113-201): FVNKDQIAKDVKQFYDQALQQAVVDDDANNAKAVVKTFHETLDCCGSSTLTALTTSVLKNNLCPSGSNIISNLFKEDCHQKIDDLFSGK
T2 sequence (P27958 384-746): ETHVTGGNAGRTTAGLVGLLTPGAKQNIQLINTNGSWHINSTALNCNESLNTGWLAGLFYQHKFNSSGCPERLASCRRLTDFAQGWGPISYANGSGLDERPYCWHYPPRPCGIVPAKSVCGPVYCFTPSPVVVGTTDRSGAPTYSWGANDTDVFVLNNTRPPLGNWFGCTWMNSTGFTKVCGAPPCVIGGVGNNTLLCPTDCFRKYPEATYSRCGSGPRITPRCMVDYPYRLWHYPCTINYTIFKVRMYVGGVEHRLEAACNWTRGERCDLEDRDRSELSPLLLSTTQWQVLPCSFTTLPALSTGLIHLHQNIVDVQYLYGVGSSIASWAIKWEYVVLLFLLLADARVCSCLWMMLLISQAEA
T1 sequence (P01589 22-213): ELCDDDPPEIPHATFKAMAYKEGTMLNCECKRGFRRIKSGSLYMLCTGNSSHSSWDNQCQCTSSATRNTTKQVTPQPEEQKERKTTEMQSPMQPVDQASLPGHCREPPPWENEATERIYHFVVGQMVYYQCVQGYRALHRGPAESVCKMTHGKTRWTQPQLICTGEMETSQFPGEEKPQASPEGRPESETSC
T1 sequence (P60568 21-153): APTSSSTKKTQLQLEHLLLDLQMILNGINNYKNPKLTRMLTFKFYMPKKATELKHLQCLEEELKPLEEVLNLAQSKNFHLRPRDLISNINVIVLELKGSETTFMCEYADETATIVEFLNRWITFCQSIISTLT
hACE2, sequence (Q9BYF1 18-805): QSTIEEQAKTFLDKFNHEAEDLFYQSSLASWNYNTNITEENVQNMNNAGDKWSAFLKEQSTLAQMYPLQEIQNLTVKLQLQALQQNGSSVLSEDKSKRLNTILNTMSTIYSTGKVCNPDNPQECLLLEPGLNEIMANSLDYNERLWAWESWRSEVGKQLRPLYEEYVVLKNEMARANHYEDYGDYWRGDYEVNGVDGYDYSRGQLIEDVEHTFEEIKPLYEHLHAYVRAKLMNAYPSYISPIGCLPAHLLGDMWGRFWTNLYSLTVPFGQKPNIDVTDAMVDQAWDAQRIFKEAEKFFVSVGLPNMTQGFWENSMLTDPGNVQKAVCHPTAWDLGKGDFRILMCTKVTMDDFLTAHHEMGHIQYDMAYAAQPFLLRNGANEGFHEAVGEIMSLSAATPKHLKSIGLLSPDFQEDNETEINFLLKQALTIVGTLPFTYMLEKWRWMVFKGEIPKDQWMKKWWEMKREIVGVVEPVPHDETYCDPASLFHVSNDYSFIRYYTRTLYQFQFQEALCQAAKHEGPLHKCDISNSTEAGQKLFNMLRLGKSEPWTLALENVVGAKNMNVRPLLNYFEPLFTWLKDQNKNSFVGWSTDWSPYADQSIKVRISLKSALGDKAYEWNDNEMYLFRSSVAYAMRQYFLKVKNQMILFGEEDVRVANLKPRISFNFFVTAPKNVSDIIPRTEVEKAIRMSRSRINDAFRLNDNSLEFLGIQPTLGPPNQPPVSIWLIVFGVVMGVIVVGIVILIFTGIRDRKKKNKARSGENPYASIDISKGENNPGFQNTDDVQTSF
T4 sequence (Q9BYF1 18-740): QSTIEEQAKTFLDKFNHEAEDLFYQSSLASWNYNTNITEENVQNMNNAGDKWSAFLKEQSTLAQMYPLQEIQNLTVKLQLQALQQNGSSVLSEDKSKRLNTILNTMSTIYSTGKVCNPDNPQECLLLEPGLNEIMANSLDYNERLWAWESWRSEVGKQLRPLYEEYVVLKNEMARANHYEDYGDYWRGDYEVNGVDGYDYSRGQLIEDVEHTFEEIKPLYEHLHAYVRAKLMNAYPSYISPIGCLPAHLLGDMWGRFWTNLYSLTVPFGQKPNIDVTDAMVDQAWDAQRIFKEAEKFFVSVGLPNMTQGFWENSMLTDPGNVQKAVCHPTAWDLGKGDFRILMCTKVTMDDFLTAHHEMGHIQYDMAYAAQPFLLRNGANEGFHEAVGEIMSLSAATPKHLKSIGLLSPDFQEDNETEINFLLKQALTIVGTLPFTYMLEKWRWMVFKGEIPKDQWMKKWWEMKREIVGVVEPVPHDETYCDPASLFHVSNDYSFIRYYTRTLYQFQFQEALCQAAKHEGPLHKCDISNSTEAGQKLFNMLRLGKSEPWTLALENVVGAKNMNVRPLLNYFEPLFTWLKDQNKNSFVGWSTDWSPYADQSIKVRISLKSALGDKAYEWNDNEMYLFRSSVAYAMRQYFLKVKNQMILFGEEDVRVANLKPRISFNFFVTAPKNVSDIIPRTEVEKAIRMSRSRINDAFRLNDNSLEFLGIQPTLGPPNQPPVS

CCN(CCO)CCCC(C)Nc1ccnc2cc(Cl)ccc12 (stereo not drawn) [HCQ, hydroxychloroquine]
IC50 [1, 12]: > 500000 nM

CN(C)c1ccc2nc3ccc(=[N+](C)C)cc-3sc2c1 [MeBlu, methylene blue]
IC50 (IL-2–IL-2Rα PPI): 370 nM
IC50 ([1]; Pseudovirus, HEK-293T, read-out: IC50, inhibition of cell entry of pseudovirus, BacMam pseudovirus, original strain, HEK293T): 3600 nM
IC50 ([1]; read-out: IC50, inhibition of cell entry of pseudovirus, BacMam pseudovirus, original strain, HEK293T): 3640 nM
IC50 (HCV E–CD81 PPI): 800 nM
IC50 [2]: 9000 nM
hospital stays (COVID-19 [3]; nebulized MeBlu, observational study, 63 patients, vs. 12, ref [55]): 9.17 days
SPR binding to hACE2 (hACE2): low micromolar range
dose above which undesired side effects (nausea, vomiting, hemolysis) are increasingly common [4]: higher than 7 mg/kg
activity against influenza virus H1N1 (influenza virus H1N1): Also active against influenza virus H1N1
IC50 (SARS-CoV-2 pseudovirus): 3000 to 5000 nM
side effects or adverse events (COVID-19 [5]): no major side effects or adverse events
patients who developed influenza-like illness [6]: none
inhibition of CD40–CD154 (CD40L) PPI (CD40–CD154 PPI): inhibited; also recorded: low micromolar
SPR binding to SARS-CoV-2 spike RBD (SARS-CoV-2 spike RBD): low‐micromolar binding; also recorded: low micromolar range
trough levels ([8]; 207 mg/day (69 mg, t.i.d., p.o.), ref [43]): 6 to 7 µM
oral bioavailability (F) ([8]; ref [42]): ≈ 80%
terminal elimination half-life (t1/2) ([8]; ref [42]): ≈ 14 h
IC50 (hCoV-229E): 1400 nM
TC50, cell viability (MTT) (HEK293T cells): 57900 nM
inhibition of TNF-R1–TNFα PPI (TNF-R1−TNFα PPI): inhibited; also recorded: low micromolar
treated patients who responded well to the treatment (COVID-19 [11]; Phase 1, MeBlu 1 mg/kg with vitamin C and N-acetyl cysteine, critically ill, ref [50]): four of the five
hospital stays (COVID-19 [11]; Phase 2, vs. 11.7 ± 6.6 without MeBlu, p = 0.004, ref [51]): 7.3 ± 4.7 days
mortality (COVID-19 [11]; Phase 2, vs. 22.5% without MeBlu, ref [51]): 12.5%
hospital stays (COVID-19 [11]; Phase 3, oral MeBlu added to standard care, 223 patients, vs. 10.6 ± 9.2, p < 0.001, ref [52]): 6.2 ± 3.1
mortality (COVID-19 [11]; Phase 3, vs. 21.4%, p = 0.07, ref [52]): 12.2%
IC50 (HCoV-NL63 S1–hACE2 PPI): 1930 nM

Nc1c(/N=N/c2ccc([N+](=O)[O-])cc2)c(S(=O)(=O)O)cc2cc(S(=O)(=O)O)c(/N=N/c3ccccc3)c(O)c12 [NBlBk, naphthol blue black]
IC50 [1, 12]: > 500000 nM

O=S(=O)(O)c1ccc(N=Nc2c(O)ccc3cc(S(=O)(=O)O)ccc23)cc1 [SY(FD&C#6), sunset yellow FCF]
IC50 [1, 12]: > 500000 nM
